What was measured:
[1] = biological target: T1, SARS-CoV-2 RdRp complex (nsp12/nsp7/nsp8) (Severe acute respiratory syndrome coronavirus 2, UniProt P0DTD1); experiment: Extension reactions of RNA template-loop-primers with nucleotide analogue triphosphates; type: biochemical; conditions: single-base extension of RNA template-loop-primers
T1 construct: made in house
Protocol: In total, 10 µL of 10 µM RNA template-loop-primers (5′-[…]-3′ for RDV-TP extension; 5′-[…]-3′ for SOF-TP extension) in 1 × RdRp reaction buffer was annealed by heating to 75 °C for 3 min and cooling to room temperature. In all, 5 µL of 8 µM RdRp complex (nsp12/nsp7/nsp8)[11],[20] in 1× reaction buffer was added to the annealed RNA template-loop-primer solution and incubated for an additional 10 min at room temperature. Finally, 5 µL of a solution containing 0.2 mM RDV-TP or 2 mM SOF-TP in 1× reaction buffer was added, and incubation was carried out for 2 h at 30 °C. The final concentrations of reagents in the 20 µL extension reactions were 2 µM nsp12/nsp7/nsp8, 5 µM RNA template-loop-primer, 50 µM RDV-TP, and 500 µM SOF-TP. The 1× reaction buffer contains the following reagents: 10 mM Tris-HCl pH 8, 10 mM KCl, 2 mM MgCl2 and 1 mM β-mercaptoethanol. Desalting of the reaction mixture was performed with an Oligo Clean & Concentrator kit (Zymo Research) resulting in ~10 µL purified aqueous RNA solutions. 1 µL of each solution was subjected to MALDI-TOF MS (Bruker ultrafleXtreme) analysis. The remaining ~9 µL extended template-loop-primer solutions were used to test exonuclease activity.
The RNA template-loop primer (5′-[…]-3′) was annealed at 75 °C for 3 min and cooled to room temperature for 25 min in 1× ThermoPol buffer before adding the other ingredients. The final 20 µL mixture containing 5 µM of the RNA template-loop primer, 250 µM, 500 µM or 1 mM AT-9010, 2 mM MnCl2 and 0.2 unit Therminator II in 1× ThermoPol buffer was incubated in a thermal cycler using the following protocol (28 cycles of 45 °C for 30 s, 55 °C for 30 s, 65 °C for 30 s). Desalting of the reaction mixture was performed with an Oligo Clean & Concentrator kit (Zymo Research) resulting in ~10 µL purified aqueous RNA solutions. 1 µL of each solution was subjected to MALDI-TOF MS (Bruker ultrafleXtreme) analysis. The remaining ~9 µL extended template-loop-primer solutions were used to test exonuclease activity. […]

[2] = biological target: SARS-CoV-2 exonuclease complex (nsp14/nsp10) (Severe acute respiratory syndrome coronavirus 2, UniProt P0DTD1); parameters: method as in earlier work; conditions: previously demonstrated; cited from earlier work

SMILES	incorporation into RNA (template base opposite) [1]	inhibition of SARS-CoV-2 exonuclease [2]
C[C@@]1(F)[C@H](O)[C@@H](COP(=O)(O)OP(=O)(O)OP(=O)(O)O)O[C@H]1n1cnc2c(=O)[nH]c(N)nc21 [AT-9010, 2’-fluoro-2’-methyl guanosine-5’-triphosphate]	incorporated opposite C	
COC[C@H]1C[C@@H](c2nc(-c3ccc4c(c3)COc3cc5c(ccc6nc([C@@H]7CC[C@H](C)N7C(=O)[C@@H](NC(=O)OC)C(C)C)[nH]c65)cc3-4)c[nH]2)N(C(=O)[C@H](NC(=O)OC)c2ccccc2)C1 [Velpatasvir]		can inhibit the SARS-CoV-2 exonuclease
O=c1nc(NO)ccn1[C@@H]1O[C@H](COP(=O)(O)OP(=O)(O)OP(=O)(O)O)[C@@H](O)[C@H]1O [NHC-TP, N^4-hydroxycytidine-5’-triphosphate]	incorporated opposite A or G	
NC(=O)c1nc(F)cn([C@@H]2O[C@H](COP(=O)(O)OP(=O)(O)OP(=O)(O)O)[C@@H](O)[C@H]2O)c1=O [Favipiravir-RTP, Favipiravir-ribofuranosyl-5’-triphosphate]	incorporated into RNA opposite C or U	

Source: paper PMC8863796 (Communications Biology, 2022)
